EC50 data for ten compounds are collected here from patent US7122570B2, “Tetrahydrocarbazol derivatives as ligands for G-protein-coupled receptors (GPCR)” (Zentaris AG, priority 2001, dated 2006).

The target of assay [1] is T1, GnRH receptor (Homo sapiens, UniProt P30968).
T1 sequence (P30968 1-328): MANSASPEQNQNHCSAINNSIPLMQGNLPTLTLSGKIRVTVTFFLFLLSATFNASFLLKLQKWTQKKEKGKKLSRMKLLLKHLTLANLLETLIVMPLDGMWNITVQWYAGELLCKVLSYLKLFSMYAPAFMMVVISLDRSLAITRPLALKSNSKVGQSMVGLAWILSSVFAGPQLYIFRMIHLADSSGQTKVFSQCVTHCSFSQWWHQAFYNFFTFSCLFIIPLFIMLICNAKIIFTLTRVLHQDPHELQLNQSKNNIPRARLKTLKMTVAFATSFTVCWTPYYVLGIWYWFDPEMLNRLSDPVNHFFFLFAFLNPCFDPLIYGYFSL
The assay can be described thus: Functional reporter gene assay (luciferase) in LTK cells carrying GnRH receptors, triptorelin stimulation. The assay is classed as cell-based. The following applies: inhibition of triptorelin/Rolipram-stimulated luciferase reporter. Also on record: expressed in transfected cells; host or cells: LTK cells (ATCC No. CCL-1.3), stably transfected, with CRE / CMV minimal promoter luciferase reporter. As for the experimental part: Functional Reporter Gene Assay
For performing functional tests, stable, transfixed LTK cells carrying GnRH receptors (ATCC No. CCL-1.3) with a heterologous expression of cAMP responsible elements as well as a CMV minimal promoter-driven luciferase reporter gene are used.
The cells are cultivated in DMEM medium (Invitrogen Life Technologies, Germany) with penicillin (100 I.U./ml), streptomycin (0.1 mg/ml) and glutamine (0.01 mol/l) and 10% fetal calf serum (FCS; Invitrogen Life Technologies, Germany) on plastic tissue culture plates (Nunc, Germany, 245×245×20 mm).
80% confluent cell culture plates are washed twice with 50 ml of phosphate-buffered salt solution (PBS) and subsequently dissolved with trypsin EDTA solution (Invitrogen Life Technologies, Germany). The cells are pelletized by centrifuging at 200×g for 5 minutes in a laboratory centrifuge (Kendro, Germany). The cell pellet is resuspended in 3 ml of assay medium (Invitrogen Life Technologies, Germany) with penicillin (100 I.U./ml), streptomycin (0.1 mg/ml) and glutamine (0.01 mol/l) and 10% fetal calf serum (FCS; Invitrogen Life Technologies, Germany), and the cell count is determined by means of trypan blue staining in a Neubauer counting chamber. The cell suspension is set with assay medium to a concentration of 1×10^4 Z/100 μl. The cells are suspended on white 96-well microtiter plates (Costar, Germany) and incubated for 18 hours in an incubator.
To perform tests, test substances are diluted as 10 mmol DMSO solutions in assay medium to 6× the final concentration used. 25 μl of the test substance is added to 100 μl cells and incubated for 60 minutes at 37° C., 5% CO2. Then, the addition of triptorelin (D-Trp6-GnRH)/Rolipram solution (6 mmol/6 mmol) and a renewed incubation are carried out for 6 hours at 37° C., 5% CO2.
After incubation, the addition of 50 μl of lysis/detection buffer (LucLite, PE Life Science) and the measurement in a Lumistar luminometer (BMG Labtechnologies GmBH, Germany) are carried out.
The evaluation of the samples is carried out after calculating the inhibition in comparison to untreated stimulated cells, after removal of non-stimulated controls, by means of GraphPad Prism (GraphPad Software, Inc., USA) or alternately by means of OMMM (Accelrys, Germany) Software.

In assay [2] the target is T1, GnRH receptor. The assay can be described thus: Receptor binding assay with 125I-triptorelin on transfected LTK cells. The following applies: competition with 125I-triptorelin, whole LTK cells, 60 minutes at 37° C. As for the experimental part:
^125I-Triptorelin [^125I-(D)-Trp6-GnRH] is ordered from the Biotrend Company (Cologne, Germany). The specific activity in each case is 2.13 Ci/mmol. All other chemicals are ordered from commercial sources at the highest available purity.
Transfixed LTK′ cells (ATCC No. CCL-11.3) are cultivated in DMEM medium (Invitrogen Life Technologies, Germany) with penicillin (100 I.U./ml), streptomycin (0.1 mg/ml) and glutamine (0.01 mol/l) and 10% fetal calf serum (FCS; Invitrogen Life Technologies, Germany) on plastic tissue culture plates (Nunc, Germany, 245×245×20 nun).
80% confluent cell culture plates are washed twice with 50 ml of phosphate-buffered salt solution (PBS) and dissolved below with 0.01 M EDTA solution. The cells are pelletized by centrifuging at 200×g for 5 minutes in a laboratory centrifuge (Kendro, Germany). The cell pellet is resuspended in 3 ml of binding medium (DMEM; 10 mmol of Hepes; 0.5% BSA; 0.1% NaN3; 1 g/l of bacitracin (freshly added, stock 100×); 0.1 g/l of SBTI (freshly added, stock 1000×), and the cell count is determined by means of trypan blue staining in a Neubauer counting chamber. The cell suspension is set with binding medium to a concentration of 5×10^5 Z/0.05 ml.
Binding tests for competition curves are performed as duplicates. The test substances are used as 10 mmol DMSO solutions. They are diluted with binding medium to 4× the final concentration used. 25 μl of the substance dilution is mixed with 25 μl of tracer solution (^125I-triptorelin). The concentration of tracer is set to about 50,000 cpm (measured in Cobra II, γ-counter, PE Liefe Science, Germany) in the final reaction volume of 100 μl.
200 μl of a silicone/paraffin oil mixture (84%:16%) is introduced into 650 μl pointed-bottom tubes (Roth, Germany). 50 μl of the cell suspension is pipetted thereto and subsequently 50 μl of the test substance/tracer mixture. The tubes are sealed and incubated for 60 minutes at 37° C. in an incubator that rotates via the top. After incubation, the samples are centrifuged in a centrifuge (Kendro, Germany) at 900 rpm and subsequently flash-frozen in liquid N2. The tip with the cell pellet is cut off and inserted into the prepared counting tube (Roth, Germany). The remainder of the pointed-bottom tube with the remaining supernatant is also inserted into a counting tube. The measurement is made in a γ-counter for 1 minute/sample.
The evaluation of the samples is carried out after calculating the specific bond in comparison to untreated cells, after the unspecific bond (excess unlabeled ligand, 1 mmol) is removed by means of GraphPad Prism (GraphPad Software Inc., USA).

Molecules are shown by their SMILES.

For `CC[C@H](C)[C@H](NC(=O)OCc1ccccc1)C(=O)N[C@]1(C(=O)N[C@H](C(N)=O)C(C)C)CCc2[nH]c3c(F)cc(F)cc3c2C1` [Compound 293, Phenylmethyl [(1S,2S)-1-[[[(3R)-3-[[[(1S)-1-(aminocarbonyl)-2-methylpropyl]amino]carbonyl]-6,8-difluoro-2,3,4,9-tetrahydro-1H-carbazol-3-yl]amino]car-bonyl]-2-methylbutyl]carbamate], the EC50 in assay [1] was 762 nM; in assay [2], 332 nM.
Turning to `CC[C@H](C)[C@H](NC(=O)[C@@]1(NC(=O)[C@@H](NC(=O)OCc2ccccc2)[C@@H](C)CC)CCc2[nH]c3c(OC)cccc3c2C1)C(N)=O` [Compound 294, Phenylmethyl [(1S,2S)-1-[[[(3R)-3-[[[(1S,2S)-1-(aminocarbonyl)-2-methylbutyl]amino]carbonyl]-8-methoxy-2,3,4,9-tetrahydro-1H-carbazol-3-yl]amino]car-bonyl]-2-methylbutyl]carbamate], the EC50 came out at 89 nM in assay [1] and 36 nM in assay [2].
The corresponding values for `CC[C@H](C)[C@H](NC(=O)[C@@]1(NC(=O)[C@@H](NC(=O)OCc2ccccc2)[C@@H](C)CC)CCc2[nH]c3c(Cl)cc(Cl)cc3c2C1)C(N)=O` [Compound 295, Phenylmethyl [(1S,2S)-1-[[[(3R)-3-[[[(1S,2S)-1-(aminocarbonyl)-2-methylbutyl]amino]carbonyl]-6,8-dichloro-2,3,4,9-tetrahydro-1H-carbazol-3-yl]amino]car-bonyl]-2-methylbutyl]carbamate] are 7 nM and 18 nM.
Turning to `CC[C@H](C)[C@H](NC(=O)OCc1ccccc1)C(=O)N[C@]1(C(=O)N[C@@H](CC(C)C)C(N)=O)CCc2[nH]c3c(Cl)cc(Cl)cc3c2C1` [Compound 296, Phenylmethyl [(1S,2S)-1-[[[(3R)-3-[[[(1S)-1-(aminocarbonyl)-3-methylbutyl]amino]carbonyl]-6,8-dichloro-2,3,4,9-tetrahydro-1H-carbazol-3-yl]amino]car-bonyl]-2-methylbutyl]carbamate], the EC50 in assay [1] was 14 nM; in assay [2], 22 nM.
In the case of `CC[C@H](C)[C@H](NC(=O)OCc1ccccc1)C(=O)N[C@]1(C(=O)N[C@@H](CC2CCCCC2)C(N)=O)CCc2[nH]c3c(Cl)cc(Cl)cc3c2C1` [Compound 297, Phenylmethyl [(1S,2S)-1-[[[(3R)-3-[[[(1S)-1-(aminocarbonyl)-2-cyclohexylethyl]amino]carbonyl]-6,8-dichloro-2,3,4,9-tetrahydro-1H-carbazol-3-yl]amino]car-bonyl]-2-methylbutyl]carbamate], the EC50 stood at 284 nM in assay [1] and 482 nM in assay [2].
Regarding `CC[C@H](C)[C@H](NC(=O)OCc1ccccc1)C(=O)N[C@]1(C(=O)N[C@@H](CCc2ccccc2)C(N)=O)CCc2[nH]c3c(Cl)cc(Cl)cc3c2C1` [Compound 299, Phenylmethyl [(1S,2S)-1-[[[(3R)-3-[[[(1S)-1-(aminocarbonyl)-3-phenylpropyl]amino]carbonyl]-6,8-dichloro-2,3,4,9-tetrahydro-1H-carbazol-3-yl]amino]car-bonyl]-2-methylbutyl]carbamate], the EC50 in assay [1] came out at 1500 nM; in assay [2], 1310 nM.
The corresponding values for `CCC(C)[C@H](NC(=O)[C@@]1(NC(=O)[C@H](CC2CCCCC2)NC(=O)OCc2ccccc2)CCc2[nH]c3c(Cl)cc(Cl)cc3c2C1)C(N)=O` (stereo partly drawn) [Compound 300, Phenylmethyl [(1S,2S)-1-[[[(3R)-3-[[[(1S)-1(aminocarbonyl)-2-methylbutyl]amino]carbonyl]-6,8-dichloro-2,3,4,9-tetrahydro-1H-carbazol-3-yl]amino]car-bonyl]-2-cyclohexylmethyl]-carbamate] are 17 nM and 23 nM.
The corresponding values for `CC[C@H](C)[C@H](NC(=O)[C@@]1(NC(=O)[C@@H](NC(=O)OCc2ccccc2)[C@@H](C)CC)CCc2[nH]c3c(Cl)cc(Cl)cc3c2C1)C(=O)O` [Compound 301, Phenylmethyl [(1S,2S)-1-[[[(3R)-3-[[[(1S,2S)-1-(carboxy)-2-methylbutyl]amino]carbonyl]-6,8-dichloro-2,3,4,9-tetrahydro-1H-carbazol-3-yl]amino]car-bonyl]-2-methylbutyl]carbamate] are 176 nM and 538 nM.
The corresponding values for `CC[C@H](C)[C@H](NC(=O)[C@@]1(NC(=O)[C@H](Cc2ccc(O)cc2)NC(=O)OCc2ccccc2)CCc2[nH]c3c(Cl)cc(Cl)cc3c2C1)C(N)=O` [Compound 302, Phenylmethyl [(1S)-1-[[[(3R)-3-[[[(1S,2S)-1-(aminocarbonyl)-2-methylbutyl]amino]carbonyl]-6,8-dichloro-2,3,4,9-tetrahydro-1H-carbazol-3-yl]amino]car-bonyl]-2-(4-hydroxyphenyl)-ethyl]carbamate] are 324 nM and 475 nM.
For the compound `CC[C@H](C)[C@H](NC(=O)[C@@]1(NC(=O)[C@H](CCc2ccccc2)NC(=O)OCc2ccccc2)CCc2[nH]c3c(Cl)cc(Cl)cc3c2C1)C(N)=O` [Compound 304, Phenylmethyl [(1S)-1-[[[(3R)-3-[[[(1S,2S)-1-(aminocarbonyl)-2-methylbutyl]amino]carbonyl]-6,8-dichloro-2,3,4,9-tetrahydro-1H-carbazol-3-yl]amino]car-bonyl]-3-phenylpropyl]carbamate], the results for the EC50 in assay [1] and in assay [2] were 18 nM and 38 nM, respectively.
